According to PubChem BioAssay (NCI):
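Assay format: 96-well plates, 48-hour exposure. At the GI50, growth is halved. TGI marks complete inhibition of growth.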

How the values were obtained:
Experiment in all cases: NCI-60 cell line screen, 48 h
[1] = tested on: BT-549 breast
[2] = tested on: COLO 205 colon
[3] = tested on: K-562 leukemia
[4] = tested on: LOX IMVI melanoma
[5] = tested on: MCF7 breast
[6] = tested on: NCI-H226 lung
[7] = tested on: NCI-H460 lung
[8] = tested on: NCI-H522 lung
[9] = tested on: OVCAR-5 ovarian
[10] = tested on: EKVX NSCLC

CC(=Nc1ccccc1)C1=C(O)C(Cc2ccc(F)cc2)NC1=O (stereo unspecified)
GI50 [1]: 0.879 µM
TGI [1]: > 100 µM
GI50 [2]: 0.421 µM
TGI [2]: 3.21 µM
GI50 [3]: 0.343 µM
TGI [3]: > 100 µM
GI50 [4]: 0.619 µM
TGI [4]: > 100 µM
GI50 [5]: 0.412 µM
TGI [5]: > 100 µM
GI50 [6]: 39.5 µM
TGI [6]: > 100 µM
GI50 [7]: 0.44 µM
TGI [7]: > 100 µM
GI50 [8]: 0.237 µM
TGI [8]: 2.1 µM
GI50 [9]: 5.21 µM
TGI [9]: > 100 µM

Cc1ccc(-n2c3c(c4c(CN)c(O)ccc42)CCc2ccccc2C3=O)cc1
GI50 [1]: 10.7 µM
TGI [1]: 31.8 µM
GI50 [2]: 19.5 µM
TGI [2]: 47 µM
GI50 [10]: 12.4 µM
TGI [10]: 28.5 µM
GI50 [4]: 16.3 µM
TGI [4]: 32.2 µM
GI50 [5]: 17.3 µM
TGI [5]: > 100 µM
GI50 [6]: 18.2 µM
TGI [6]: 36.6 µM
GI50 [7]: 7.33 µM
TGI [7]: 28.4 µM
GI50 [8]: 9.3 µM
TGI [8]: 23.6 µM
GI50 [9]: 15.8 µM
TGI [9]: 30.4 µM

C=C1C(=O)O[C@H]2[C@H]1CC/C(Cn1cc(-c3ccsc3)nn1)=C\CC[C@@]1(C)O[C@@H]21
GI50 [1]: 1.8 µM
TGI [1]: 5.21 µM
GI50 [2]: 1.45 µM
TGI [2]: 3.24 µM
GI50 [10]: 2.33 µM
TGI [10]: 7.76 µM
GI50 [3]: 2.51 µM
TGI [3]: 11.7 µM
GI50 [4]: 1.28 µM
TGI [4]: 2.61 µM
GI50 [6]: 2.09 µM
TGI [6]: 5.51 µM
GI50 [7]: 4.71 µM
TGI [7]: 18.9 µM
GI50 [8]: 1.39 µM
TGI [8]: 3.17 µM
GI50 [9]: 2.29 µM
TGI [9]: 7.13 µM

CC1=CC2=C(C#N)C(=O)OC2(C)C(c2ccccc2)C1 (stereo unspecified)
TGI [1]: > 100 µM
TGI [10]: > 100 µM
TGI [3]: > 100 µM
TGI [4]: > 100 µM
TGI [6]: > 100 µM
TGI [7]: > 100 µM
TGI [8]: > 100 µM
TGI [9]: > 100 µM

CN[C@H]1CC[C@]23C[C@]24CC[C@]2(C)[C@@H]([C@H](C)N(C)C)CC[C@@]2(C)[C@@H]4CC[C@H]3C1(C)C
TGI [1]: 31.9 µM
TGI [2]: 25.2 µM
TGI [10]: 37.9 µM
TGI [4]: 18.9 µM
TGI [5]: 36.2 µM
TGI [6]: 34.9 µM
TGI [7]: 37.2 µM
TGI [8]: 34.1 µM
TGI [9]: 60.7 µM

CC(C)=CCc1c(O)c(C(=O)CC(C)C)c(O)c2c(-c3ccccc3)cc(=O)oc12
GI50 [1]: 7.31 µM
TGI [1]: > 50 µM
GI50 [2]: 9.75 µM
TGI [2]: 19 µM
GI50 [10]: 11.5 µM
TGI [10]: > 50 µM
GI50 [3]: 3.05 µM
TGI [3]: > 50 µM
GI50 [4]: 15.6 µM
TGI [4]: > 50 µM
GI50 [5]: 11.8 µM
TGI [5]: > 50 µM
GI50 [6]: 16.4 µM
TGI [6]: > 50 µM
GI50 [7]: 8.03 µM
TGI [7]: > 50 µM
GI50 [8]: 7.02 µM
TGI [8]: 28.2 µM

CCC(=O)Nc1ncnc2ncn(C(=O)CC)c12
TGI [1]: > 100 µM
TGI [10]: > 100 µM
TGI [3]: > 100 µM
TGI [4]: > 100 µM
TGI [5]: > 100 µM
TGI [7]: > 100 µM
TGI [8]: > 100 µM
TGI [9]: > 100 µM

CCOC(=O)C(=O)C(/C(=N/N(C)C)C(=O)Nc1ccc(C)cc1C)c1nc2ccccc2[nH]c1=O (stereo unspecified)
TGI [1]: > 100 µM
TGI [10]: > 100 µM
TGI [3]: > 100 µM
TGI [4]: > 100 µM
TGI [5]: > 100 µM
TGI [6]: > 100 µM
TGI [7]: > 100 µM
TGI [8]: > 100 µM
TGI [9]: > 100 µM
